Laboratory results taken from PubChem BioAssay (NCI).
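GI50 = concentration required for 50% inhibition of growth. At the TGI there is no net growth.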

Key:
Experiment in all cases: DTP human tumour cell line panel, 384-well format
HOP-92 NSCLC = tested on: HOP-92 NSCLC
EKVX NSCLC = tested on: EKVX NSCLC
DU-145 prostate = tested on: DU-145 prostate
HS 578T breast = tested on: HS 578T breast
HCT-116 colon = tested on: HCT-116 colon
CAKI-1 renal = tested on: CAKI-1 renal
NCI-H226 lung = tested on: NCI-H226 lung
HL-60(TB) leukemia = tested on: HL-60(TB) leukemia
UO-31 renal = tested on: UO-31 renal
KM12 colon = tested on: KM12 colon
SNB-75 CNS = tested on: SNB-75 CNS
OVCAR-8 ovarian = tested on: OVCAR-8 ovarian
BT-549 breast = tested on: BT-549 breast

SMILES: C[C@@H]1CN(C(=O)c2ccc(NC(=O)c3cc(O[C@H](C)c4c(Cl)ccc(F)c4Cl)c(N)nn3)cc2)C[C@H](C)N1
- GI50 (HOP-92 NSCLC): 0.66 µM
- TGI (HOP-92 NSCLC): 2.42 µM
- GI50 (EKVX NSCLC): 1.52 µM
- TGI (EKVX NSCLC): 5.93 µM
- GI50 (DU-145 prostate): 3.89 µM
- TGI (DU-145 prostate): 14.5 µM
- GI50 (HS 578T breast): 1.8 µM
- TGI (HS 578T breast): 3.44 µM
- GI50 (HCT-116 colon): 1.41 µM
- TGI (HCT-116 colon): 4.34 µM
- GI50 (CAKI-1 renal): 2.16 µM
- TGI (CAKI-1 renal): 5.69 µM
- GI50 (NCI-H226 lung): 2.12 µM
- TGI (NCI-H226 lung): 8.92 µM
- GI50 (HL-60(TB) leukemia): 1.25 µM
- TGI (HL-60(TB) leukemia): 2.51 µM
- GI50 (UO-31 renal): 3.53 µM
- TGI (UO-31 renal): 12.4 µM
- GI50 (KM12 colon): 0.0407 µM
- TGI (KM12 colon): 5.37 µM
- GI50 (SNB-75 CNS): 2.21 µM
- TGI (SNB-75 CNS): 4.14 µM
- GI50 (OVCAR-8 ovarian): 3.44 µM
- TGI (OVCAR-8 ovarian): 10.3 µM
- GI50 (BT-549 breast): 2.39 µM
- TGI (BT-549 breast): 4.27 µM

SMILES: O=C1CC(c2ccc(N3CCOCC3)cc2)(c2ccsc2)NC(=O)C1Sc1ccccc1Cl (stereo unspecified)
- GI50 (HOP-92 NSCLC): 3.34 µM
- TGI (HOP-92 NSCLC): 18.7 µM
- GI50 (EKVX NSCLC): 98.9 µM
- TGI (EKVX NSCLC): > 100 µM
- GI50 (DU-145 prostate): 53.9 µM
- TGI (DU-145 prostate): > 100 µM
- GI50 (HS 578T breast): 1.76 µM
- TGI (HS 578T breast): 3.69 µM
- GI50 (HCT-116 colon): 36.8 µM
- TGI (HCT-116 colon): > 100 µM
- GI50 (CAKI-1 renal): 52.7 µM
- TGI (CAKI-1 renal): > 100 µM
- GI50 (NCI-H226 lung): 50.3 µM
- TGI (NCI-H226 lung): > 100 µM
- GI50 (HL-60(TB) leukemia): 2.82 µM
- GI50 (UO-31 renal): 33.7 µM
- TGI (UO-31 renal): > 100 µM
- GI50 (KM12 colon): > 57.6 µM
- TGI (KM12 colon): > 100 µM
- GI50 (SNB-75 CNS): > 100 µM
- TGI (SNB-75 CNS): > 100 µM
- GI50 (OVCAR-8 ovarian): 3.45 µM
- TGI (OVCAR-8 ovarian): 18.2 µM
- GI50 (BT-549 breast): 3.71 µM
- TGI (BT-549 breast): 28.3 µM
